Results as given in patent publication US20220387358A1, “CERAMIDE ANALOG SACLAC MODULATES SPHINGOLIPID LEVELS AND MCL-1 SPLICING TO INDUCE APOPTOSIS IN ACUTE MYELOID LEUKEMIA” (University of Virginia Patent Foundation, priority 2019, published 2022).
“Also recorded” adds a separate entry of the source.

Tests used:
[1] = test system: PBMCs from healthy donors; test: Cell viability of normal samples ([…]-GLO); format: cell-based; conditions: Homo sapiens, PBMC; PBMCs (n=6); 24 hours
From the text: (§1) Healthy donor samples: PBMCs from healthy donors were enriched using the Ficoll-Paque gradient separation method. CD34+PBMCs mobilized with G-CSF were obtained from the University of Virginia Health System Blood Bank (Charlottesville, Va., United States of America). CD34+ cells were isolated from PBMCs with a Human CD34 MicroBead Kit (#130-046, Miltenyi Biotec, Bergisch Gladbach, Germany) using the autoMACS Pro Separator (#130-092-545, Miltenyi Biotec, Bergisch Gladbach, Germany). For cell viability, cell lines were plated at 2.5×10^4 cells per well in a 96-well plate and treated with […] or DMSO vehicle (0.4% of total volume) for the indicated time points and doses. […] Conversion of MTS to formazan product was measured by absorbance at 490 nm using a BioTek Cytation 3 plate reader (BioTeck, Winooski, Vt., United States of America). Absorbance was normalized to DMSO control, which was defined as 100% viability. […] After 15 minutes, luminescence was read on a BioTek Cytation 3 plate reader (BioTek, Winooski, Vt., United States of America). Absorbance was normalized to DMSO control, which was defined as 100% viability.

[2] = test system: normal CD34+ cells; test: Cell viability of normal samples ([…]-GLO); format: cell-based; conditions: Homo sapiens; CD34+ (n=4); 24 hours
From the text: as §1

[3] = test system: primary AML patient samples; test: Colony forming assay; format: cell-based, human; conditions: six primary patient samples
Procedure: Cryopreserved human AML patient samples were thawed and washed twice with RPMI 1640 supplemented with 2% heat inactivated fetal bovine serum (FBS). After washes, cells were cultured in triplicate in 12-well plates at a density of 0.1 to 2×10^5 cells per well in Human Methylcellulose Complete Media (#HSC003R&D Systems, Minneapolis, Minnesota, United States of America). Plating densities were selected for each case to yield colony outgrowth of 20-100 colonies per well. The desired cell number and dose of SACLAC or DMSO was added to the culture media and dispensed to multi-well plates. Colonies were propagated for 10-14 days and blast colonies (>20 cells) were counted in a blinded manner under the light microscope.

[4] = test system: human MV4-11 AML cells; test: MV4-11 AML xenograft model in NSG mice; format: in vivo
Procedure: (§2) MV4-11 AML cells expressing luciferase (luc2) and YFP (39) or U937 AML cells expressing luc2 and tdTomato (#72486, Addgene, Watertown, Mass., United States of America) were used to investigate the efficacy of SACLAC in NOD-scid […] (NSG) mice (Jackson Laboratories, Bar Harbor, Me., United States of America). Maximum tolerated dose and pharmacokinetic studies were also performed to determine safety and delivery of compound.
To assess the efficacy of SACLAC in a transplantable human AML model, two cell line models were used. For the MV4-11 model, 2.5×10^6 luciferase and yellow fluorescent protein (YFP)-expressing MV4-11 cells in HBSS were introduced into 6- to 8-week-old female NSG mice via tail-vein injections. After 10-12 days, engraftment was confirmed using bioluminescence imaging with the IVIS Lumina LT Series III imaging system (PerkinElmer Inc., Waltham, Mass., United States of America). Mice were equally randomized into two groups of three mice and treated with vehicle or SACLAC at 5 mg/kg/day five times per week for 18 total injections. At the end of the treatment, animals were euthanized and peripheral blood was collected for flow cytometry analysis.
(§3) Red blood cells (RBC) were lysed with RBC Lysis Buffer (#420301, BioLegend, San Diego, Calif., United States of America) followed by cell surface staining with anti-human CD45 antibodies (#304014, clone HI30, BioLegend, San Diego, Calif., United States of America) and 7AAD (#420404, BioLegend, San Diego, Calif., United States of America) to detect viable human white blood cells (WBC) using an LSR II flow cytometer and BD FACS Diva software. Viable cells were identified by gating on 7AAD-negative cells gated from singlets (SSC-A and FSC-W scales), after excluding the debris (SSC-A and FSC-A scales). Percentage of YFP, tdTomato or hCD45 positive cells was determined in FlowJo software (Becton Dickinson, Franklin Lakes, N.J., United States of America). All animal studies were performed with IACUC approval.

[5] = test system: U937 AML cells; test: U937 AML xenograft model in NSG mice; format: in vivo; conditions: 5 mg/kg tail-vein, five times per week, 15 injections
Procedure: as §2
For the U937 model, 1×10^4 luciferase and tdTomato-expressing U937 cells in […] were introduced into 6- to 8-week-old female NSG mice via tail-vein injections. After six days, engraftment was confirmed as stated above. Mice were equally randomized into two groups of five mice and treated with vehicle or SACLAC at 5 mg/kg/day five times per week for 15 total injections. […]
as §3, with “Viable cells were identified by gating on 7AAD-negative cells gated from singlets (SSC-A and FSC-W scales), after excluding the debris (SSC-A and FSC-A scales).” left out, “All animal studies were performed with IACUC approval.” left out

[6] = Mouse serum SACLAC levels by formulation and route; format: in vivo
Procedure: More particularly, SACLAC was dissolved in 2-hydroxypropyl-β-cyclodextrin (β-HPCD) (53). In addition, a SACLAC nanoliposome was prepared.

CCCCCCCCCCCCCCC[C@@H](O)[C@H](CO)NC(=O)CCl [SACLAC, N-[(2S,3R)-1,3-dihydroxyoctadecan-2-yl]2-chloroacetamide]
EC50 [1]: 7.4 µM
EC50 [2]: 4 µM
colony formation decreased (average) ([3]; 5 μM): 32%
colony formation decreased (average) ([3]; 20 μM): 69%
toxicity in treated animals ([4]; 5 mg/kg i.v. in β-HPCD): No overt toxicity; also recorded: non-toxic
body weight of treated animals ([4]; 5 mg/kg i.v. in β-HPCD, course of the study): weight gain; also recorded: did not lose weight
decrease in leukemic burden (circulating leukemic cells in blood) ([4]; 5 mg/kg tail-vein, five times per week, 18 injections): ~75%
reduction in leukemic cells in the bone marrow [5]: up to 50%
clearance ([6]; all treatment groups): rapidly cleared
serum levels ([6]; free SACLAC in DMSO, i.p.): low serum levels
maximum serum level ([6]; maximum over the formulations tested): ~1 µM
serum levels ([6]; β-HPCD, i.v.): improvement
